Results: the NIST ThermoML archive (doi:10.1021/je700131z)
Numbers after ± are expanded uncertainties.

Details: Crystal; visual observation

Normal melting temperature: 94.50 ± 1.1 °C
SMILES: OC[C@@H](O)[C@H](O)[C@@H](O)CO [xylitol]
